The record followed here is patent US20240408027A1, “HIGH DRUG LOADING POLYMERS” (priority 2021, published 2024).

Bounds are passed on as bounds.

This data set in a line: Drug loading of paclitaxel, etoposide, chloroquine into core library (Example 3).

For `CCN(CC)CCCC(C)Nc1ccnc2cc(Cl)ccc12` (stereo not drawn) [chloroquine], the “loading trend with core composition” value (polymer:drug 1:1) was “increased loading with increasing H-bonding”.

Turning to `CC(=O)O[C@H]1C(=O)[C@@]2(C)[C@H]([C@H](OC(=O)c3ccccc3)[C@]3(O)C[C@H](OC(=O)[C@H](O)[C@@H](NC(=O)c4ccccc4)c4ccccc4)C(C)=C1C3(C)C)[C@]1(OC(C)=O)CO[C@@H]1C[C@@H]2O` [Paclitaxel, paclitaxel], the “core composition at loading maximum” value (polymer:drug 1:1) is 90 % B.

As for `COc1cc([C@@H]2c3cc4c(cc3[C@@H](O[C@@H]3O[C@@H]5CO[C@@H](C)O[C@H]5[C@H](O)[C@H]3O)[C@H]3COC(=O)[C@H]23)OCO4)cc(OC)c1O` [etoposide], under “100% B core”, the “LE+LC, fold higher in the absence of H-bonding groups in the core” value is recorded as over 2 ×.
